Results on eleven compounds are retold here after the Kinase Knowledgebase extract (Sharma et al. 2016).

This assay concerns the target PIK3CB;PIK3CG;PIK3CD;PIK3CA (human) (UniProt P48736). Kind of assay: Inhibition of PIK3CA/PIK3CB/PIK3CD/PIK3CG Kinase Activity.
Compound `COC[C@H]1OC(=O)/C(=C/N(Cc2ccccc2)Cc2ccccc2)C2=C(O)C(=O)C3=C([C@H](OC(C)=O)C[C@]4(C)C(=O)CC[C@@H]34)[C@]21C` registered a half-inhibitory concentration (IC50) of 0.3 nM.

Take `COC[C@H]1OC(=O)/C(=C/NCC(N)=O)C2=C(O)C(=O)C3=C([C@H](OC(C)=O)C[C@]4(C)C(=O)CC[C@@H]34)[C@]21C`: the IC50 amounted to 10 nM.

Take `COC[C@H]1OC(=O)/C(=C/NCCc2ccccc2)C2=C(O)C(=O)C3=C([C@H](OC(C)=O)C[C@]4(C)C(=O)CC[C@@H]34)[C@]21C`: the 50% inhibitory concentration (IC50) is 2 nM.

Consider `COC[C@H]1OC(=O)/C(=C/N(C)Cc2ccccc2)C2=C(O)C(=O)C3=C([C@H](OC(C)=O)C[C@]4(C)C(=O)CC[C@@H]34)[C@]21C`, for which the IC50 worked out at 0.8 nM.

In the case of `COC[C@H]1OC(=O)/C(=C/N)C2=C(O)C(=O)C3=C([C@H](OC(C)=O)C[C@]4(C)C(=O)CC[C@@H]34)[C@]21C`, the IC50 stood at 2 nM.

For the compound `C=CCN/C=C1/C(=O)O[C@H](COC)[C@@]2(C)C1=C(O)C(=O)C1=C2[C@H](OC(C)=O)C[C@]2(C)C(=O)CC[C@@H]12`, the IC50 was 7.5 nM.

The compound `COC[C@H]1OC(=O)/C(=C/Sc2ccccc2)C2=C(O)C(=O)C3=C([C@H](OC(C)=O)C[C@]4(C)C(=O)CC[C@@H]34)[C@]21C` yielded an IC50 of 1 nM.

For the compound `C=CCN(/C=C1/C(=O)O[C@H](COC)[C@@]2(C)C1=C(O)C(=O)C1=C2[C@H](OC(C)=O)C[C@]2(C)C(=O)CC[C@@H]12)CC=C`, the IC50 came out at 0.1 nM.

In the case of `COC[C@H]1OC(=O)/C(=C/NCCCN(C)C)C2=C(O)C(=O)C3=C([C@H](OC(C)=O)C[C@]4(C)C(=O)CC[C@@H]34)[C@]21C`, the 50% inhibitory concentration (IC50) worked out at 1 nM.

For `COC[C@H]1OC(=O)/C(=C/SC(C)C)C2=C(O)C(=O)C3=C([C@H](OC(C)=O)C[C@]4(C)C(=O)CC[C@@H]34)[C@]21C`, the IC50 stood at 0.1 nM.

`COC[C@H]1OC(=O)/C(=C/N2CCCC2)C2=C(O)C(=O)C3=C([C@H](OC(C)=O)C[C@]4(C)C(=O)CC[C@@H]34)[C@]21C` showed an IC50 of 1.1 nM.
